ChEMBL document CHEMBL3826881, “Evaluation of bisbenzamidines as inhibitors for matriptase-2” (Bioorg Med Chem Lett, 2016)
pKi: −log10 of the molar value. Each block holds one molecule with its values, some of them ahead of it.

Experiments:
[1] = target: T1, Transmembrane protease serine 6 (Homo sapiens) (UniProt Q8IU80); assay: Inhibition of human matriptase-2 transfected in HEK cells assessed as residual activity at 40 uM using Boc-Gln-Ala-Arg-AMC as substrate after 20 mins by fluorimetric analysis; type: cell-based; conditions: HEK293
T1 sequence (whole entry): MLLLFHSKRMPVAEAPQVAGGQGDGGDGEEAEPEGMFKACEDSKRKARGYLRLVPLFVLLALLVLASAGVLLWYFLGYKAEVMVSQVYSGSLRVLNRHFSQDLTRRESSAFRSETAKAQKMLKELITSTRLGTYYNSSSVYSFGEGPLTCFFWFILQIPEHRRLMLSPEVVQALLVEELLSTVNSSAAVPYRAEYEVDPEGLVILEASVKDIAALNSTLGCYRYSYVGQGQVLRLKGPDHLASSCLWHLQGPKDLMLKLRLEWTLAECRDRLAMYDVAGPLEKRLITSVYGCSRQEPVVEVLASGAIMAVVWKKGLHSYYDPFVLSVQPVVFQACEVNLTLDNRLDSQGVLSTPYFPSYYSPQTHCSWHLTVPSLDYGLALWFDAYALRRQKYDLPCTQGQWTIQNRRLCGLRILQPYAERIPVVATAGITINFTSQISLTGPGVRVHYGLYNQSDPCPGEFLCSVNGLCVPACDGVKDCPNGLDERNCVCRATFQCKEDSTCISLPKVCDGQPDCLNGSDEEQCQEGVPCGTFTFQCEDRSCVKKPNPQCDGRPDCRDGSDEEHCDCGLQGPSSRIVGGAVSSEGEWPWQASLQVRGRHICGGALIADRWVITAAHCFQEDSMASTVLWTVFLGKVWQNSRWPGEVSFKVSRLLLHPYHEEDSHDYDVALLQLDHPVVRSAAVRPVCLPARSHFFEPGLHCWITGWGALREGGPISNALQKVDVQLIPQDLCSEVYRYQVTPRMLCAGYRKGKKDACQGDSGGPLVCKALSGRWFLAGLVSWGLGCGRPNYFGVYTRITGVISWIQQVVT

Trypsin = Trypsin (Homo sapiens, UniProt P07477+P07478+P35030); assay: Inhibition of human trypsin using Boc-Gln-Ala-Arg-AMC as substrate after 20 mins by fluorimetric analysis; type: protein assay
Prothrombin = Prothrombin (Homo sapiens, UniProt P00734); assay: Inhibition of human thrombin using Cbz-Gly-Gly-Arg-AMC as substrate after 20 mins by fluorimetric analysis
Coagulation factor X = Coagulation factor X (Bos taurus, UniProt P00743); assay: Inhibition of bovine factor 10a using Boc-Ile-Glu-Gly-Arg-AMC as substrate after 20 mins by fluorimetric analysis
[2] = target: T2, Suppressor of tumorigenicity 14 protein (Homo sapiens, UniProt Q9Y5Y6); assay: Inhibition of human matriptase using Boc-Gln-Ala-Arg-AMC as substrate after 20 mins by fluorimetric analysis
T2 sequence (Q9Y5Y6 whole entry): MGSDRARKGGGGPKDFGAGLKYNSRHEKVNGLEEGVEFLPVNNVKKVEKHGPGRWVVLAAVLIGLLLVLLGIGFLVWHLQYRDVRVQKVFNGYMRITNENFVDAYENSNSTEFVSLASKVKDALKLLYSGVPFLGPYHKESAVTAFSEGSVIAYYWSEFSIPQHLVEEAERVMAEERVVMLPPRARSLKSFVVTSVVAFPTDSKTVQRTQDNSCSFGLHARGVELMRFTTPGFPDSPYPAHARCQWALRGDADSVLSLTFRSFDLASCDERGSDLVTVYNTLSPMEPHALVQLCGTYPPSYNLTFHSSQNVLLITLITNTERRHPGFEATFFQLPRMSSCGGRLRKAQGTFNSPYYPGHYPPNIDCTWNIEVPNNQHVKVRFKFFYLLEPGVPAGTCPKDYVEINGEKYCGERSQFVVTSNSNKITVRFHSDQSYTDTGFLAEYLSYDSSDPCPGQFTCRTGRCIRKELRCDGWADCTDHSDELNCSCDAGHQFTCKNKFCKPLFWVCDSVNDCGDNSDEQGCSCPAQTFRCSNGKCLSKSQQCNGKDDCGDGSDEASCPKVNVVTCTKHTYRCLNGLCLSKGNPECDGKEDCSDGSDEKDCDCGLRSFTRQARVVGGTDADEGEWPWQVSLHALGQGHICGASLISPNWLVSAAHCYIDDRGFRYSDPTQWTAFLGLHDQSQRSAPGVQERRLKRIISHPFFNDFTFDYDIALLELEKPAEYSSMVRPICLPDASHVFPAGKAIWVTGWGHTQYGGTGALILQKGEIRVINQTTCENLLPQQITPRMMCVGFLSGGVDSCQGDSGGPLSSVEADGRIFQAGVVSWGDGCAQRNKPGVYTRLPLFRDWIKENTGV

[3] = target: T3, Transmembrane protease serine 6 (Homo sapiens, UniProt Q8IU80); assay: Inhibition of human matriptase-2 transfected in HEK cells using Boc-Gln-Ala-Arg-AMC as substrate after 20 mins by fluorimetric analysis; type: cell-based, HEK293
T3 sequence (Q8IU80 whole entry): T1 sequence (whole entry)

[4] = target: T1, Transmembrane protease serine 6 (Homo sapiens); assay: Inhibition of human matriptase-2 transfected in HEK cells assessed as residual activity at 5 uM using Boc-Gln-Ala-Arg-AMC as substrate after 20 mins by fluorimetric analysis; type: cell-based; conditions: HEK293
[5] = Inhibition of bovine trypsin after 15 to 30 mins; design: species or system Bos taurus

Sequence of Coagulation factor X (P00743 41-180 limits assumed): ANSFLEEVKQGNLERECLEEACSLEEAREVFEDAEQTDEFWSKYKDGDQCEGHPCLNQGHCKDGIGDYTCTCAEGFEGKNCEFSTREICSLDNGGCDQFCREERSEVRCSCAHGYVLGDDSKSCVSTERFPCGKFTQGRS
Sequence of Coagulation factor X (P00743 234-492 limits assumed): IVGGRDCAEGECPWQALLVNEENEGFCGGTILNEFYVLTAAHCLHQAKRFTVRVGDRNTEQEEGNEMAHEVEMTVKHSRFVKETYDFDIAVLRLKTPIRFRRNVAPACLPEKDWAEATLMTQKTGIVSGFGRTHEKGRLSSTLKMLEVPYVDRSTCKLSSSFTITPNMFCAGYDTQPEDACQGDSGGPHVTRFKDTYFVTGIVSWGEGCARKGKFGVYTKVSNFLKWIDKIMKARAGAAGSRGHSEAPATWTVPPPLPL

SMILES: CN(CCNc1ccc(C(=N)N)cc1)c1ccc(C(=N)N)cc1
Activity [1]: 21%

SMILES: N=C(N)c1ccc(NC(=O)c2cccc(C(=O)Nc3ccc(C(=N)N)cc3)c2)cc1
Activity [1]: 32%

SMILES: N=C(N)c1ccc(NCCCCNc2ccc(C(=N)N)cc2)cc1
Activity [1]: 27%

SMILES: N=C(N)c1ccc(NC(=O)C(=O)Nc2ccc(C(=N)N)cc2)cc1
Activity [1]: 17%
Ki (Trypsin): 1420 nM
pKi (Prothrombin): 4.80
pKi (Coagulation factor X): 4.28
pKi [2]: 6.31
pKi [3]: 5.21

SMILES: N=C(N)c1ccc(OCc2ccccc2COc2ccc(C(=N)N)cc2)cc1
Activity [1]: 19%
Ki (Trypsin): 221 nM
pKi (Prothrombin): 6.55
pKi (Coagulation factor X): 4.86
pKi [2]: 5.64
pKi [3]: 5.28

SMILES: N=C(N)c1ccc(NC(=O)CCCCCCC(=O)Nc2ccc(C(=N)N)cc2)cc1
Activity [1]: 62%

SMILES: N=C(N)c1ccc(NCCCCCCNc2ccc(C(=N)N)cc2)cc1
Activity [1]: 21%

SMILES: N=C(N)c1ccc(NC(=O)CCCCC(=O)Nc2cccc(C(=N)N)c2)cc1
Activity [1]: 78%

SMILES: N=C(N)c1ccc(NCCNc2ccc(C(=N)N)cc2)cc1
Activity [1]: 23%

SMILES: N=C(N)c1ccc(NCCCCCCCCNc2ccc(C(=N)N)cc2)cc1
Activity [1]: 8.6%
Ki (Trypsin): 192 nM
pKi (Prothrombin): 6.50
pKi (Coagulation factor X): 5.89
pKi [2]: 6.28
pKi [3]: 5.79

SMILES: CN(CCCN(C)c1ccc(C(=N)N)cc1)c1ccc(C(=N)N)cc1
Activity [1]: 23%

The next lines start with the values.

Activity [1]: 16%
Ki (Trypsin): 244 nM
pKi (Prothrombin): 6.30
pKi (Coagulation factor X): 6.41
pKi [2]: 6.25
pKi [3]: 5.43
SMILES: N=C(N)c1ccc(NCCCCCCCNc2ccc(C(=N)N)cc2)cc1

Activity [1]: 17%
SMILES: N=C(N)c1ccc(OCc2cccc(COc3ccc(C(=N)N)cc3)c2)cc1

Activity [1]: 46%
SMILES: N=C(N)c1ccc(COc2ccccc2OCc2ccc(C(=N)N)cc2)cc1

Activity [1]: 55%
SMILES: N=C(N)c1ccc(NCCCNc2ccc(C(=N)N)cc2)cc1

Activity [4]: 93%
Activity [1]: > 50%
SMILES: N=C(N)c1ccc(NC(=O)c2ccc(C(=O)Nc3ccc(C(=N)N)cc3)cc2)cc1

Activity [1]: 33%
SMILES: N=C(N)c1ccc(NC(=O)CCCCCCCCC(=O)Nc2ccc(C(=N)N)cc2)cc1

Activity [1]: 49%
SMILES: N=C(N)c1ccc(NC(=O)CCCCCCCCCCC(=O)Nc2ccc(C(=N)N)cc2)cc1

Activity [1]: 45%
SMILES: N=C(NC1CC1)c1ccc(N2CCCN(c3ccc(C(=N)NC4CC4)cc3)CC2)cc1

Activity [1]: 16%
Ki (Trypsin): 316 nM
pKi (Prothrombin): 5.94
pKi (Coagulation factor X): 6.49
pKi [5]: 5.89
pKi [2]: 6.09
pKi [3]: 5.24
SMILES: N=C(N)c1ccc(OCc2ccc(COc3ccc(C(=N)N)cc3)cc2)cc1

Activity [1]: 63%
SMILES: N=C(N)c1ccc(NC(=O)CCCCCC(=O)Nc2ccc(C(=N)N)cc2)cc1

Activity [1]: 68%
SMILES: N=C(N)c1ccc(NC(=O)CCCC(=O)Nc2ccc(C(=N)N)cc2)cc1

Activity [1]: 49%
SMILES: N=C(N)c1ccc(NC(=O)CCCCCCCC(=O)Nc2ccc(C(=N)N)cc2)cc1

Activity [1]: 5.3%
Ki (Trypsin): 513 nM
pKi (Prothrombin): 5.00
pKi (Coagulation factor X): 4.70
pKi [2]: 6.14
pKi [3]: 5.94
SMILES: N=C(N)c1ccc(N2CCN(c3ccc(C(=N)N)cc3)CC2)cc1

Activity [1]: 57%
SMILES: N=C(N)c1ccc(NC(=O)CCCCC(=O)Nc2ccc(C(=N)N)cc2)cc1

Activity [1]: 15%
Ki (Trypsin): 1900 nM
pKi (Prothrombin): 5.28
pKi (Coagulation factor X): 5.11
pKi [2]: 6.40
pKi [3]: 5.36
SMILES: N=C(N)c1ccc(N2CCCN(c3ccc(C(=N)N)cc3)CC2)cc1

Activity [1]: 40%
SMILES: N=C(N)c1ccc(NC(=O)CCC(=O)Nc2ccc(C(=N)N)cc2)cc1
